The values below come from patent US5124350A, “Leukotriene B4 antagonists” (G. D. Searle & Co., priority 1990, dated 1992).

The target of assay [1] is T1, LTB4 Receptor (Homo sapiens, UniProt Q15722).
T1 construct: Neutrophils were purified from venous blood of normal human donors; endogenous in cells; host or cells: neutrophils from venous blood of normal human donors
In words: LTB4 Receptor Binding Assay ((3H) LTB4, human neutrophils). To be noted: relative to the compound of Example 1 (b), defined as 1.0. How it is done: (§1) Neutrophils were purified from venous blood of normal human donors using standard techniques of dextran sedimentation, centrifugation on Ficoll-paque® (Pharmacia) or Histopaque® sterile solution (Sigma) and hypotonic lysis of erythrocytes (Boyum, A., Isolation of Leukocytes From Human Blood: Further Observations. Scand. J. Lab. Clin. Invest., 21 (Suppl. 97): 31, 1968). The purity of isolated neutrophils was>95%.
Neutrophils (4-6×10^6) in 1 ml Hanks' balanced salt solution (HBSS) containing 10 mM HEPES buffer , pH 7.4 and […] nordihydroguaiaretic acid were incubated with 0.6×10^-9 M (^3 H) LTB4 in the presence or absence of test compounds. The incubation was carried out at 0° C. for 45 minutes and terminated by adding 5ml of ice-cold HBSS followed by rapid filtration of the incubation mixture under vacuum through GF/C glass fiber filters. The filters were further washed with 10 ml HBSS and radioactivity was determined. Specific binding was defined as the difference between total binding and nonspecific binding which was not displaced by 10^-7 M unlabeled LTB4. All data refer to specific binding.

Assay [2] has as its system Human neutrophils (LTB4 chemotaxis). In words: Modified Boyden Chamber Chemotaxis, LTB4. Particulars: relative to the compound of Example 1 (b), defined as 1.0; 3×10^-8 M LTB4. It counts as cell-based.
Excerpt: as §1
(§2) Human neutrophils were isolated from citrated peripheral blood using standard techniques of dextran sedimentation, followed by centrifugation on Histopaque® sterile solution (Sigma) or Ficoll-paque® (Pharmacia) and hypotonic lysis of erythrocytes. A final cell suspension of 3.4×10^6 neutrophils/ml of HEPES-buffered Hanks' balanced salt solution (HBSS, pH 7.3) was added to the upper well (0.8 ml ) of a modified Boyden chamber (blind well). The lower well (0.2 ml), separated by a polycarbonate membrane (Nucleopore Corp.), contained HBSS or 3×10^-8 M LTB4 in the presence or absence of test compound. […] The number of neutrophils migrating into the lower chamber in the absence of chemoattractant was subtracted from the number of cells migrating in the presence of a chemoattractant. Inhibition of chemotaxis by test compounds was expressed as percent inhibition relative to uninhibited control.
(§3) Data are expressed as potency relative to the compound of Example i(b ), 7-[3,(4-acetyl-3-methoxy-2propylphenoxy)propoxy]-3,4-dihydro-8-propyl-2H-1-benzopyran-2-carboxylic acid, which is disclosed in U.S. Pat. No. 4,889,871.

The test system of assay [3] is Human neutrophils (fMLP chemotaxis). In words: Modified Boyden Chamber Chemotaxis, fMLP. It counts as cell-based. To be noted: relative to the compound of Example 1 (b), defined as 1.0.
Excerpt: [The procedure below names another target; the source lists this target under the same test.] as §1, §2, §3

Some results are limits rather than exact numbers.

T1 sequence (Q15722 whole entry): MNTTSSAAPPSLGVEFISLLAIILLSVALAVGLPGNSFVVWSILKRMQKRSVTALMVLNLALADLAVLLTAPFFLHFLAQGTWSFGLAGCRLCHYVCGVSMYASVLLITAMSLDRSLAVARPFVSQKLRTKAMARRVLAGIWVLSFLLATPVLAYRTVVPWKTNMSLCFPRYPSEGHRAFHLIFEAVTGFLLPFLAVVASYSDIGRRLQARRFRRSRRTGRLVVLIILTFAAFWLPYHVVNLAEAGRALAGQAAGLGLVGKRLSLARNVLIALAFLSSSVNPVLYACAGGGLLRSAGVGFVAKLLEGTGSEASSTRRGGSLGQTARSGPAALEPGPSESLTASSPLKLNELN

For `C=CCc1c(OCCCOc2ccc3c(c2CCC)OC(CCC(=O)O)CC3)ccc(C(=O)NC)c1OC` (stereo not drawn) [Example 9, 3,4-Dihydro-7-[3-[3-methoxy-4-[(methylamino)carbonyl]-2-(2-propenyl)phenoxy]propoxy]8-propyl-2H-1-benzopyran-2-propanoic acid], the “Relative Potency, LTB4 Receptor Binding” value in assay [1] is given as 8.9. For the same compound, the “Relative Potency, Chemotaxis LTB4” value in assay [2] is reported as 12.3. For the same compound, the “Relative Potency, Chemotaxis fMLP” value in assay [3] was found to be 0.38.
`CCCc1c(OCCCOc2ccc(C(=O)NC)c(OC)c2CCC)ccc2c1OC(CCC(=O)O)CC2` (stereo not drawn) [Example 14, 3,4-Dihydro-7-[3-[3-methoxy-4-[(methylamino)carbonyl]-2-propylphenoxy]propoxy]-8-propyl-2H-1-benzopyran-2-propanoic acid]: the “Relative Potency, LTB4 Receptor Binding” value in assay [1] is 4.0. Moreover, the “Relative Potency, Chemotaxis LTB4” value in assay [2] turned out to be 4.1. Further, the “Relative Potency, Chemotaxis fMLP” value in assay [3] came out at 0.52.
For `CCCc1c(OCCCOc2ccc(C(=O)NC)c(OC)c2CC2CC2)ccc2c1OC(C(=O)O)CC2` (stereo not drawn) [Example 19, 7-[3-[2-(Cyclopropylmethyl)-3-methoxy-4-[(methylamino)carbonyl]phenoxy]propoxy]-3,4-dihydro-8-propyl-2H-1-benzopyran-2-carboxylic acid], in that order: 5.3, 16.9 and 1.57.
On to `C=CCc1c(OCCCOc2ccc3c(c2CCC)OC(C(=O)O)CC3)ccc(C(=O)NC)c1OC` (stereo not drawn) [Example 26, 3,4-Dihydro-7-[3-[3-methoxy-4-[(methylamino)carbonyl]-2-(2-propenyl)phenoxy]propoxy]-8-propyl 2H-1-benzopyran-2-carboxylic acid], for which the “Relative Potency, LTB4 Receptor Binding” value in assay [1] is recorded as 2.1. Besides, the “Relative Potency, Chemotaxis LTB4” value in assay [2] came out at 7.6. For the same compound, the “Relative Potency, Chemotaxis fMLP” value in assay [3] was determined as 0.95.
`C=CCc1c(OCCCOc2ccc3c(c2CCC)OC(C(=O)O)CC3)ccc(C(=O)N2CCCC2)c1OC` (stereo not drawn) [Example 29, 3,4-Dihydro-7-[3-[3-methoxy-2-(2-propenyl)-4-(1-pyrrolidinylcarbonyl)phenoxy]propoxy]-8-propyl-2H-1-benzopyran-2-carboxylic acid]: the “Relative Potency, LTB4 Receptor Binding” value in assay [1] is 1.0. In addition, in assay [2], the “Relative Potency, Chemotaxis LTB4” value is 0.18.
Regarding `C=CCc1c(OCCCOc2ccc3c(c2CCC)OC(C(=O)O)CC3)ccc(C(N)=O)c1OC` (stereo not drawn) [Example 32, 7-[3-[4-(Aminocarbonyl)-3-methoxy-2-(2-propenyl)phenoxy]propoxy]-3,4-dihydro-8-propyl-2H-1-benzopyran-2-carboxylic acid], the “Relative Potency, LTB4 Receptor Binding” value in assay [1] amounted to 2.1. Moreover, the “Relative Potency, Chemotaxis LTB4” value in assay [2] came out at 4.0. Also, the “Relative Potency, Chemotaxis fMLP” value in assay [3] was found to be 1.5.
Take `CCCc1c(OCCCOc2ccc(C(=O)NC)c(OC)c2CCC)ccc2c1OC(C(=O)O)CC2` (stereo not drawn) [Example 35, 3,4-Dihydro-7-[3-[3-methoxy-2-propyl-4-[(methylamino)carbonyl]phenoxy]propoxy]-8-propyl-2H-1-benzopyran-2-carboxylic acid]: the “Relative Potency, LTB4 Receptor Binding” value in assay [1] is on record as 0.81. In addition, the “Relative Potency, Chemotaxis LTB4” value in assay [2] came out at 2.6.
Consider `CCCc1c(OCCCOc2ccc(C(N)=O)c(OC)c2CCC)cccc1OCC(=O)O` [Example 43, [3-[3-[4-(Aminocarbonyl)-3-methoxy-2-propylphenoxy]propoxy]-2-propylphenoxy]acetic acid], for which the “Relative Potency, LTB4 Receptor Binding” value in assay [1] was found to be 0.83. Besides, the “Relative Potency, Chemotaxis LTB4” value in assay [2] is listed as 1.1. Moreover, the “Relative Potency, Chemotaxis fMLP” value in assay [3] is given as at most 0.63.
As for `CCCc1c(OCCCOc2ccc(C(=O)NC)c(OC)c2CCC)cccc1OCC(=O)O` [Example 46, [3-[3-[3-Methoxy-4-[(methylamino)carbonyl]-2-propylphenoxy]propoxy]-2-propylphenoxy]acetic acid], the “Relative Potency, LTB4 Receptor Binding” value in assay [1] was 0.71. Besides, the “Relative Potency, Chemotaxis LTB4” value in assay [2] was 0.58. For the same compound, in assay [3], the “Relative Potency, Chemotaxis fMLP” value is listed as at most 0.048.
On to `CCCc1c(OCCCOc2ccc(C(=O)N3CCCC3)c(OC)c2CCC)cccc1OCC(=O)O` [Example 50, [3-[3-[3-Methoxy-2-propyl-4-(1-pyrrolidinylcarbonyl)phenoxy]propoxy]2-propylphenoxy]acetic acid], for which the “Relative Potency, LTB4 Receptor Binding” value in assay [1] was determined as 0.04. Besides, the “Relative Potency, Chemotaxis LTB4” value in assay [2] stood at 0.05. For the same compound, the “Relative Potency, Chemotaxis fMLP” value in assay [3] is recorded as below 0.48.
On to `C=CCc1c(OCCCOc2cccc(OCC(=O)O)c2CCC)ccc(C(N)=O)c1OC` [Example 56, [3-[3-[4-(Aminocarbonyl)-3-methoxy-2-(2-propenyl)phenoxy]propoxy]-2-propylphenoxy] acetic acid], for which the “Relative Potency, LTB4 Receptor Binding” value in assay [1] stood at 1.0. Moreover, the “Relative Potency, Chemotaxis LTB4” value in assay [2] is 2.6. In addition, the “Relative Potency, Chemotaxis fMLP” value in assay [3] is given as below 0.63.
For the compound `C=CCc1c(OCCCOc2cccc(OCC(=O)O)c2CCC)ccc(C(=O)N2CCCC2)c1OC` [Example 59, [3-[3-[3-Methoxy-2-(2-propenyl)-4-(1-pyrrolidinylcarbonyl)phenoxy]propoxy]-2-propylphenoxy]acetic acid], the “Relative Potency, LTB4 Receptor Binding” value in assay [1] turned out to be 0.04. Further, the “Relative Potency, Chemotaxis LTB4” value in assay [2] was below 0.9.
Regarding `CCCc1c(OCCCOc2ccc(C(=O)NC)c(OC)c2CC2CC2)ccc2c1OC(CCC(=O)O)CC2` (stereo not drawn) [Example 62, 7-[3-[2-(Cyclopropylmethyl)-3-methoxy-4-[(methylamino)carbonyl]phenoxy]propoxy]-3,4-dihydro-8-propyl-2H-1-benzopyran-2-propanoic acid], the “Relative Potency, LTB4 Receptor Binding” value in assay [1] is 8.5. Besides, the “Relative Potency, Chemotaxis LTB4” value in assay [2] is recorded as 17.4. In addition, the “Relative Potency, Chemotaxis fMLP” value in assay [3] was found to be 0.69.
